In patent publication US20140018340A1, “Insulin Mimetic Active Comprising Oxodiperoxo Vanadates and a Pharmaceutical Composition Obtained Thereof” (priority 2011, published 2014):

Legend:
[1] = system: Glut4 in 3T3-L1 adipocytes; experiment: In vitro assay of Glut 4 translocation (GFP-Glut4 transfected cells); assay type: cell-based; conditions: GFP-Glut4 transfected 3T3-L1 adipocytes
[2] = dose inducing insulin like activity, from cited reference; cited from earlier work

Substance	Glut4 translocation from cytosol to membrane [1]	Dose in-vitro [2] [mM]
insulin: the hormone which regulates the body's glucose level and metabolism	gets translocated to the membrane on addition of insulin	–
pervanadate	–	1
